As a reminder, the pIC50 is the IC50 on a negative log10 scale, so that one unit is a factor of ten. A low value points to a high IC50.

The structures appear in SMILES notation. pIC50: −log10 of the molar value. A value given as a limit tells only on which side of the number the result lay.

The assay has as its system Endogenous Huntingtin Protein. Put plainly: Endogenous Huntingtin Protein Assay (Meso Scale Discovery ELISA-based electrochemiluminescence). In kind it is cell-based. The conditions noted are these: MSD plates coated with MW1 (expanded polyglutamine) or MAB2166 capture antibody; lysates. Here is the method:
Compounds of Formula (I) were tested using the Meso Scale Discovery (MSD) Assay provided in International Application No. PCT/US2016/066042, filed on Dec. 11, 2016 and claiming priority to United States Provisional Application U.S. 62/265,652 filed on Dec. 10, 2015, the entire contents of which are incorporated herein by reference.
The Endogenous Huntingtin Protein assay used in Example 1 was developed using the ELISA-based MSD electrochemiluminescence assay platform.
Endogenous Huntingtin Protein Assay
Meso Scale Discovery (MSD) 96-well or 384-well plates were coated overnight at 4° C. with MW1 (expanded polyglutamine) or MAB2166 monoclonal antibody (for capture) at a concentration of 1 μg/mL in PBS (30 μL per well). Plates were then washed three times with 300 μL wash buffer (0.05% Tween-20 in PBS) and blocked (100 μL blocking buffer; 5% BSA in PBS) for 4-5 hours at room temperature with rotational shaking and then washed three times with wash buffer.
Samples (25 μL) were transferred to the antibody-coated MSD plate and incubated overnight at 4° C. After removal of the lysates, the plate was washed three times with wash buffer, and 25 μL of #5656S (Cell signaling; rabbit monoclonal) secondary antibody (diluted to 0.25 μg/mL in 0.05% Tween-20 in blocking buffer) was added to each well and incubated with shaking for 1 Hour at room temperature. Following incubation with the secondary antibody, the wells were rinsed with wash buffer after which 25 μL of goat anti-rabbit SULFO TAG secondary detection antibody (required aspect of the MSD system) (diluted to 0.25 μg/mL in 0.05% Tween-20 in blocking buffer) was added to each well and incubated with shaking for 1 hour at room temperature. After rinsing three times with wash buffer, 150 μL of read buffer T with surfactant (MSD) were added to each empty well, and the plate was imaged on a SI 6000 imager (MSD) according to manufacturers' instructions provided for 96- or 384-well plates.
`CC1(C)CC(n2nnc3cc(-c4ccc(-c5c[nH]nn5)cc4O)nnc32)CC(C)(C)N1` [Cpd 112, 2-[3-(2,2,6,6-tetramethylpiperidin-4-yl)-3H-[1,2,3]triazolo[4,5-c]pyridazin-6-yl]-5-(1H-1,2,3-triazol-4-yl)phenol] gave a pIC50 of at least 7.00.

Regarding `CC1(C)CC(n2nnc3cc(-c4ccc(-c5ccccn5)cc4O)nnc32)CC(C)(C)N1` [Cpd 61, 5-(pyridin-2-yl)-2-[3-(2,2,6,6-tetramethylpiperidin-4-yl)-3H-[1,2,3]triazolo[4,5-c]pyridazin-6-yl]phenol], the pIC50 was 5.52 to 6.00.

`CC1(C)CC(n2cnc3cc(-c4ccc(-c5cn[nH]c5)cc4O)nnc32)CC(C)(C)N1` [Cpd 3, 5-(1H-pyrazol-4-yl)-2-[7-(2,2,6,6-tetramethylpiperidin-4-yl)-7H-imidazo[4,5-c]pyridazin-3-yl]phenol] gave a pIC50 of at least 7.00.

Turning to `CC1(C)CC(n2nnc3cc(-c4ccc(-c5c[nH]nc5C(F)(F)F)cc4O)nnc32)CC(C)(C)N1` [Cpd 139, 2-[3-(2,2,6,6-tetramethylpiperidin-4-yl)-3H-[1,2,3]triazolo[4,5-c]pyridazin-6-yl]-5-[3-(trifluoromethyl)-1H-pyrazol-4-yl]phenol], the pIC50 is 6.30 to 7.00.

As for `CC1(C)C=C(n2ccc3nc(-c4ccc(-c5cn[nH]c5)cc4O)cnc32)CC(C)(C)N1` [Cpd 8, 5-(1H-pyrazol-4-yl)-2-[5-(2,2,6,6-tetramethyl-1,2,3,6-tetrahydropyridin-4-yl)-5H-pyrrolo[2,3-b]pyrazin-2-yl]phenol], the pIC50 is 5.52 to 6.00.

Take `Oc1cc(-c2cn[nH]c2)ccc1-c1cc2[nH]cc(C3=CCNCC3)c2nn1` [Cpd 11, 5-(1H-pyrazol-4-yl)-2-[7-(1,2,3,6-tetrahydropyridin-4-yl)-5H-pyrrolo[3,2-c]pyridazin-3-yl]phenol]: the pIC50 was 5.52 to 6.00.

`CC1(C)CC(n2ccc3nc(-c4cc(F)c(-c5cn[nH]c5)cc4F)cnc32)CC(C)(C)N1` [Cpd 16, 2-[2,5-difluoro-4-(1H-pyrazol-4-yl)phenyl]-5-(2,2,6,6-tetramethylpiperidin-4-yl)-5H-pyrrolo[2,3-b]pyrazine]: the pIC50 is 6.30 to 7.00.

In turn, `Cn1cnc2cc(-c3cc4nnn(C5CC(C)(C)NC(C)(C)C5)c4nn3)c(O)cc21` [Cpd 92, 1-methyl-5-[3-(2,2,6,6-tetramethylpiperidin-4-yl)-3H-[1,2,3]triazolo[4,5-c]pyridazin-6-yl]-1H-benzimidazol-6-ol] gave a pIC50 of 5.52 to 6.00.

In the case of `COc1nccc(-c2ccc(-c3cc4nnn(C5CC(C)(C)NC(C)(C)C5)c4nn3)c(O)c2)n1` [Cpd 119, 5-(2-methoxypyrimidin-4-yl)-2-[3-(2,2,6,6-tetramethylpiperidin-4-yl)-3H-[1,2,3]triazolo[4,5-c]pyridazin-6-yl]phenol], the pIC50 is 6.30 to 7.00.

As for `CCCn1cc(-c2ccc(-c3cc4nnn(C5CC(C)(C)NC(C)(C)C5)c4nn3)c(O)c2)cn1` [Cpd 47, 5-(1-propyl-1H-pyrazol-4-yl)-2-[3-(2,2,6,6-tetramethylpiperidin-4-yl)-3H-[1,2,3]triazolo[4,5-c]pyridazin-6-yl]phenol], the pIC50 is 5.52 to 6.00.

`Cn1ccc(-c2ccc(-c3cc4nnn(C5CC(C)(C)NC(C)(C)C5)c4nn3)c(O)c2)n1` [Cpd 51, 5-(1-methyl-1H-pyrazol-3-yl)-2-[3-(2,2,6,6-tetramethylpiperidin-4-yl)-3H-[1,2,3]triazolo[4,5-c]pyridazin-6-yl]phenol] had a pIC50 of 6.30 to 7.00.

`CC1(C)CC(n2nnc3cc(-c4ccc(-c5cc(=O)[nH]cn5)cc4O)nnc32)CC(C)(C)N1` [Cpd 128, 6-{3-hydroxy-4-[3-(2,2,6,6-tetramethylpiperidin-4-yl)-3H-[1,2,3]triazolo[4,5-c]pyridazin-6-yl]phenyl}pyrimidin-4(3H)-one] showed a negative logarithm of the IC50 (pIC50) of at least 7.00.

As for `CC1(C)CC(n2nnc3cc(-c4ccc(-c5ncc(C#N)s5)cc4O)nnc32)CC(C)(C)N1` [Cpd 110, 2-{3-hydroxy-4-[3-(2,2,6,6-tetramethylpiperidin-4-yl)-3H-[1,2,3]triazolo[4,5-c]pyridazin-6-yl]phenyl}-1,3-thiazole-5-carbonitrile], the pIC50 is 6.30 to 7.00.

The record behind these values is US11858941B2, “Heterocyclic and heteroaryl compounds for treating Huntington's disease” (PTC THERAPEUTICS, INC., priority 2018, dated 2024).
